Patent US11479551B2, “MTA-cooperative PRMT5 inhibitors” (Mirati Therapeutics, Inc., priority 2019, dated 2022)
Read-outs that look alike come from different tables or passages of the source. Values belong to the compound of their own block, whether it stands above or below them.

Molecular target: PRMT5/MEP50 complex (Homo sapiens (Human), UniProt O14744)
Test: PRMT5:MEP50 FlashPlate Assay (histone H4 peptide substrate, plus and minus MTA)
Type: biochemical
Method: The PRMT5 inhibitory activity of compounds of the present invention was determined using either a PRMT5:MEP50 FlashPlate Assay (Reaction Biology Corporation) or a PRMT5:MEP50 HotSpot Assay (Reaction Biology Corporation).
1. PRMT5:MEP50 FlashPlate Assay

[1] = IC50 + 2 μM MTA (nM), in the presence of 2 μM MTA
[2] = in the absence of MTA, read-out: IC50

PRMT5/MEP50 complex, sequence (O14744 2-637): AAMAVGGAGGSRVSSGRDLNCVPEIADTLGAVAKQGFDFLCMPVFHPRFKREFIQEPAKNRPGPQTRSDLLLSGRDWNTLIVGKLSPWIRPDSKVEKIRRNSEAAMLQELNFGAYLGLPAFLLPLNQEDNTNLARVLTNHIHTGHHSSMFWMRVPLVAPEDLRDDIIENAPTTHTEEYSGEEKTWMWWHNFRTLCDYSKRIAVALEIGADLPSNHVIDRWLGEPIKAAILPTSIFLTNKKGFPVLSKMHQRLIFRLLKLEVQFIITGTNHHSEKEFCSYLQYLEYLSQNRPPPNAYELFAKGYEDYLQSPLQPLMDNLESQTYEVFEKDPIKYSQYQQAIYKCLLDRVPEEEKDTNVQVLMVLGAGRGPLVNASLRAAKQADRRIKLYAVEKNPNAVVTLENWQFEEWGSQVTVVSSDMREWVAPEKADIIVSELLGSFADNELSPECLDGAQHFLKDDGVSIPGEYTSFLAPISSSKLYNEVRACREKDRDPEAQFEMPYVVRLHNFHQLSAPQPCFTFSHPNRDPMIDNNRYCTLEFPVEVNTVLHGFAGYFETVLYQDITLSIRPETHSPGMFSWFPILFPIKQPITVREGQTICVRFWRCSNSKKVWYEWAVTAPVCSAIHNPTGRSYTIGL
PRMT5/MEP50 complex, sequence (Q9BQA1 2-342 partner): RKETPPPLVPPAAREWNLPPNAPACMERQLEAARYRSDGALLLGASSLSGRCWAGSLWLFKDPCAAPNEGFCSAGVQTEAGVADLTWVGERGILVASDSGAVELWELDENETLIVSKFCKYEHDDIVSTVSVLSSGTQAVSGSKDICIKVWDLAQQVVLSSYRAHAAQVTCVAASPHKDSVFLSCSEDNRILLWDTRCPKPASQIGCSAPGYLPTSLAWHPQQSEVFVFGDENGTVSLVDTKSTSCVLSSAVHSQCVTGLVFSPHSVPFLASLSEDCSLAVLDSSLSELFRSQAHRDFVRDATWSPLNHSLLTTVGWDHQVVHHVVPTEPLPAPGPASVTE

IC50 [1]: 25 nM | IC50 [2]: 850 nM
SMILES: NCc1n[nH]c(=O)c2ccc(-c3cnc4ccc(OC(F)(F)F)cn34)cc12 [Example 4-38, 4-(aminomethyl)-6-(6-(trifluoromethoxy)imidazo[1,2-a]pyridin-3-yl)phthalazin-1(2H)-one]

IC50 [1]: 1.7 nM | IC50 [2]: 109 nM
SMILES: NCc1n[nH]c(=O)c2ccc(-c3cnc4ccc(-c5ccccc5)cn34)cc12 [Example 4-39, 4-(aminomethyl)-6-(6-phenylimidazo[1,2-a]pyridin-3-yl)phthalazin-1(2H)-one]

IC50 [1]: 56 nM | IC50 [2]: 4810 nM
SMILES: N#Cc1c[nH]c2ncc(-c3ccc4c(=O)[nH]nc(CN)c4c3)cc12 [Example 4-41, 5-(4-(aminomethyl)-1-oxo-1,2-dihydrophthalazin-6-yl)-1H-pyrrolo[2,3-b]pyridine-3-carbonitrile]

IC50 [1]: 19 nM | IC50 [2]: 667 nM
SMILES: NCc1n[nH]c(=O)c2ccc(-c3cnc4[nH]cc(CO)c4c3)cc12 [Example 4-47, 4-(aminomethyl)-6-(3-(hydroxymethyl)-1H-pyrrolo[2,3-b]pyridin-5-yl)phthalazin-1(2H)-one]

IC50 [1]: 22 nM | IC50 [2]: 750 nM
SMILES: COc1c(-c2ccc3c(=O)[nH]nc(CN)c3c2)cnn1C [Example 4-48, 4-(aminomethyl)-6-(5-methoxy-1-methyl-1H-pyrazol-4-yl)phthalazin-1(2H)-one]

IC50 [1]: 300 nM | IC50 [2]: 5930 nM
SMILES: Cn1ncc(-c2ccc3c(=O)[nH]nc(CN)c3c2)c1Cl [Example 4-49, 4-(aminomethyl)-6-(5-chloro-1-methyl-pyrazol-4-yl)-2H-phthalazin-1-one]

IC50 [1]: 22 nM | IC50 [2]: 456 nM
SMILES: NCc1n[nH]c(=O)c2ccc(-c3cncc(Cc4ccccc4)c3)cc12 [Example 4-50, 4-(aminomethyl)-6-(5-benzylpyridin-3-yl)phthalazin-1(2H)-one]

IC50 [1]: 18 nM | IC50 [2]: 669 nM
SMILES: NCc1n[nH]c(=O)c2ccc(-c3cncc(S(=O)(=O)c4ccccc4)c3)cc12 [Example 4-52, 4-(aminomethyl)-6-(5-(phenylsulfonyl)pyridin-3-yl)phthalazin-1(2H)-one]

IC50 [1]: 77 nM | IC50 [2]: 1550 nM
SMILES: NCc1n[nH]c(=O)c2ccc(-c3cnsc3-c3ccccc3)cc12 [Example 4-54, 4-(aminomethyl)-6-(5-phenylisothiazol-4-yl)phthalazin-1(2H)-one]

IC50 [1]: 11 nM | IC50 [2]: 85 nM
SMILES: NCc1n[nH]c(=O)c2ccc(-c3cncc(Sc4ccc(Cl)cc4)c3)cc12 [Example 4-57, 4-(aminomethyl)-6-(5-((4-chlorophenyl)thio)pyridin-3-yl)phthalazin-1(2H)-one]

IC50 [1]: 1.8 nM | IC50 [2]: 36 nM
SMILES: NCc1n[nH]c(=O)c2ccc(-c3cncc(Sc4ccccc4Cl)c3)cc12 [Example 4-58, 4-(aminomethyl)-6-(5-((2-chlorophenyl)thio)pyridin-3-yl)phthalazin-1(2H)-one]

IC50 [1]: 2.1 nM | IC50 [2]: 68 nM
SMILES: Cc1ccccc1Sc1cncc(-c2ccc3c(=O)[nH]nc(CN)c3c2)c1 [Example 4-59, 4-(aminomethyl)-6-(5-(o-tolylthio)pyridin-3-yl)phthalazin-1(2H)-one]

IC50 [1]: 3 nM | IC50 [2]: 149 nM
SMILES: Cc1cccc(Sc2cncc(-c3ccc4c(=O)[nH]nc(CN)c4c3)c2)c1 [Example 4-61, 4-(aminomethyl)-6-(5-(m-tolylthio)pyridin-3-yl)phthalazin-1(2H)-one]

IC50 [1]: 58 nM | IC50 [2]: 1380 nM
SMILES: NCc1n[nH]c(=O)c2ccc(-c3cncc(Oc4ccccn4)c3)cc12 [Example 4-63, 4-(aminomethyl)-6-(5-(pyridin-2-yloxy)pyridin-3-yl)phthalazin-1(2H)-one]

IC50 [1]: 16 nM | IC50 [2]: 517 nM
SMILES: NCc1n[nH]c(=O)c2ccc(-c3cncc(Oc4cccc(F)c4)c3)cc12 [Example 4-65, 4-(aminomethyl)-6-(5-(3-fluorophenoxy)pyridin-3-yl)phthalazin-1(2H)-one]

IC50 [1]: 10 nM | IC50 [2]: 243 nM
SMILES: COc1cccc(Oc2cncc(-c3ccc4c(=O)[nH]nc(CN)c4c3)c2)c1 [Example 4-68, 4-(aminomethyl)-6-(5-(3-methoxyphenoxy)pyridin-3-yl)phthalazin-1(2H)-one]

IC50 [1]: 3 nM | IC50 [2]: 73 nM
SMILES: Cc1ccccc1Oc1cncc(-c2ccc3c(=O)[nH]nc(CN)c3c2)c1 [Example 4-72, 4-(aminomethyl)-6-(5-(o-tolyloxy)pyridin-3-yl)phthalazin-1(2H)-one]

IC50 [1]: 1.1 nM | IC50 [2]: 76 nM
SMILES: Cc1ccc(Oc2cncc(-c3ccc4c(=O)[nH]nc(CN)c4c3)c2)cc1Cl [Example 4-74, 4-(aminomethyl)-6-(5-(3-chloro-4-methylphenoxy)pyridin-3-yl)phthalazin-1(2H)-one]

IC50 [1]: 27 nM | IC50 [2]: 930 nM
SMILES: NCc1n[nH]c(=O)c2ccc(-c3cnn4c3CN(Cc3ccccc3)CC4)cc12 [Example 4-79, 4-(aminomethyl)-6-(5-benzyl-4,5,6,7-tetrahydropyrazolo[1,5-a]pyrazin-3-yl)phthalazin-1(2H)-one]

IC50 [1]: 58 nM | IC50 [2]: 1570 nM
SMILES: CCN1CCn2ncc(-c3ccc4c(=O)[nH]nc(CN)c4c3)c2C1 [Example 4-80, 4-(aminomethyl)-6-(5-ethyl-4,5,6,7-tetrahydropyrazolo[1,5-a]pyrazin-3-yl)phthalazin-1(2H)-one]

IC50 [1]: 18 nM | IC50 [2]: 826 nM
SMILES: CC(C)N1CCn2ncc(-c3ccc4c(=O)[nH]nc(CN)c4c3)c2C1 [Example 4-81, 4-(aminomethyl)-6-(5-isopropyl-4,5,6,7-tetrahydropyrazolo[1,5-a]pyrazin-3-yl)phthalazin-1(2H)-one]

Continued, compound first:

SMILES: NCc1n[nH]c(=O)c2ccc(-c3cnc4ccc(OC5CC5)cn34)cc12 [Example 4-37, 4-(aminomethyl)-6-(6-cyclopropoxyimidazo[1,2-a]pyridin-3-yl)phthalazin-1(2H)-one]
IC50 [1]: 1.1 nM | IC50 [2]: 213 nM

SMILES: NCc1n[nH]c(=O)c2ccc(-c3cnc4[nH]cc(F)c4c3)cc12 [Example 4-42, 4-(aminomethyl)-6-(3-fluoro-1H-pyrrolo[2,3-b]pyridin-5-yl)phthalazin-1(2H)-one]
IC50 [1]: 45 nM | IC50 [2]: 1380 nM

SMILES: NCc1n[nH]c(=O)c2ccc(-c3cnc4[nH]cc(C(F)(F)F)c4c3)cc12 [Example 4-43, 4-(aminomethyl)-6-(3-(trifluoromethyl)-1H-pyrrolo[2,3-b]pyridin-5-yl)phthalazin-1(2H)-one]
IC50 [1]: 32 nM | IC50 [2]: 1520 nM

SMILES: COCc1c[nH]c2ncc(-c3ccc4c(=O)[nH]nc(CN)c4c3)cc12 [Example 4-46, 4-(aminomethyl)-6-(3-(methoxymethyl)-1H-pyrrolo[2,3-b]pyridin-5-yl)phthalazin-1(2H)-one]
IC50 [1]: 0.6 nM | IC50 [2]: 329 nM

SMILES: CN(C)c1cncc(-c2ccc3c(=O)[nH]nc(CN)c3c2)c1 [Example 4-53, 4-(aminomethyl)-6-(5-(dimethylamino)pyridin-3-yl)phthalazin-1(2H)-one]
IC50 [1]: 55 nM | IC50 [2]: 1140 nM

SMILES: NCc1n[nH]c(=O)c2ccc(-c3cncc(Sc4ccccc4)c3)cc12 [Example 4-55, 4-(aminomethyl)-6-(5-(phenylthio)pyridin-3-yl)phthalazin-1(2H)-one]
IC50 [1]: 1.2 nM | IC50 [2]: 30 nM

SMILES: NCc1n[nH]c(=O)c2ccc(-c3cncc(Sc4cccc(Cl)c4)c3)cc12 [Example 4-56, 4-(aminomethyl)-6-(5-((3-chlorophenyl)thio)pyridin-3-yl)phthalazin-1(2H)-one]
IC50 [1]: 3.8 nM | IC50 [2]: 107 nM

SMILES: Cc1ccc(Sc2cncc(-c3ccc4c(=O)[nH]nc(CN)c4c3)c2)cc1 [Example 4-60, 4-(aminomethyl)-6-(5-(p-tolylthio)pyridin-3-yl)phthalazin-1(2H)-one]
IC50 [1]: 2.3 nM | IC50 [2]: 117 nM

SMILES: NCc1n[nH]c(=O)c2ccc(-c3cncc(Oc4cccnc4)c3)cc12 [Example 4-62, 4-(aminomethyl)-6-(5-(pyridin-3-yloxy)pyridin-3-yl)phthalazin-1(2H)-one]
IC50 [1]: 120 nM | IC50 [2]: 2230 nM

SMILES: NCc1n[nH]c(=O)c2ccc(-c3cncc(Oc4ncccn4)c3)cc12 [Example 4-64, 4-(aminomethyl)-6-(5-(pyrimidin-2-yloxy)pyridin-3-yl)phthalazin-1(2H)-one]
IC50 [1]: 230 nM | IC50 [2]: 4110 nM

SMILES: N#Cc1cccc(Oc2cncc(-c3ccc4c(=O)[nH]nc(CN)c4c3)c2)c1 [Example 4-69, 3-((5-(4-(aminomethyl)-1-oxo-1,2-dihydrophthalazin-6-yl)pyridin-3-yl)oxy)benzonitrile]
IC50 [1]: 10 nM | IC50 [2]: 624 nM

SMILES: NCc1n[nH]c(=O)c2ccc(-c3cncc(Oc4ccccc4F)c3)cc12 [Example 4-70, 4-(aminomethyl)-6-(5-(2-fluorophenoxy)pyridin-3-yl)phthalazin-1(2H)-one]
IC50 [1]: 10 nM | IC50 [2]: 221 nM

SMILES: Cc1c(Cl)cccc1Oc1cncc(-c2ccc3c(=O)[nH]nc(CN)c3c2)c1 [Example 4-75, 4-(aminomethyl)-6-(5-(3-chloro-2-methylphenoxy)pyridin-3-yl)phthalazin-1(2H)-one]
IC50 [1]: 0.7 nM | IC50 [2]: 33 nM

SMILES: Cc1ccc(Oc2cncc(-c3ccc4c(=O)[nH]nc(CN)c4c3)c2)c(C)c1Cl [Example 4-76, 4-(aminomethyl)-6-(5-(3-chloro-2,4-dimethylphenoxy)pyridin-3-yl)phthalazin-1(2H)-one]
IC50 [1]: 1.3 nM | IC50 [2]: 31 nM

SMILES: COc1ccc(Oc2cncc(-c3ccc4c(=O)[nH]nc(CN)c4c3)c2)cc1 [Example 4-77, 4-(aminomethyl)-6-(5-(4-methoxyphenoxy)pyridin-3-yl)phthalazin-1(2H)-one]
IC50 [1]: 1.1 nM | IC50 [2]: 96 nM

SMILES: COc1ccccc1Oc1cncc(-c2ccc3c(=O)[nH]nc(CN)c3c2)c1 [Example 4-78, 4-(aminomethyl)-6-(5-(2-methoxyphenoxy)pyridin-3-yl)phthalazin-1(2H)-one]
IC50 [1]: 0.5 nM | IC50 [2]: 66 nM

SMILES: NCc1n[nH]c(=O)c2ccc(-c3cnn4c3CN(C3CC3)CC4)cc12 [Example 4-82, 4-(aminomethyl)-6-(5-cyclopropyl-4,5,6,7 tetrahydropyrazolo[1,5-a]pyrazin-3-yl)phthalazin-1(2H)-one]
IC50 [1]: 28 nM | IC50 [2]: 1340 nM
